The source made the active and inactive calls. The calls are words filed in the database; no cut-off is given here.
Key:
KB [1] = test: Cytotoxicity against human KB cells at 20 uM after 72 hrs by neutral red staining; type: functional, cell-based
Acetylcholinesterase = Acetylcholinesterase (Electrophorus electricus, UniProt O42275)
Description: Inhibition of Electrophorus electricus C2888 AChE using acetylthiocholine iodide as substrate by Ellman's spectroscopic method

KB [2] = test: Cytotoxicity against human KB cells after 72 hrs by neutral red staining; type: functional, cell-based
[3] = target: Acetylcholinesterase (Electrophorus electricus) (UniProt O42275); details: C2888, 50 uM
Acetylcholinesterase (Electrophorus electricus), sequence (O42275 24-633 limits assumed): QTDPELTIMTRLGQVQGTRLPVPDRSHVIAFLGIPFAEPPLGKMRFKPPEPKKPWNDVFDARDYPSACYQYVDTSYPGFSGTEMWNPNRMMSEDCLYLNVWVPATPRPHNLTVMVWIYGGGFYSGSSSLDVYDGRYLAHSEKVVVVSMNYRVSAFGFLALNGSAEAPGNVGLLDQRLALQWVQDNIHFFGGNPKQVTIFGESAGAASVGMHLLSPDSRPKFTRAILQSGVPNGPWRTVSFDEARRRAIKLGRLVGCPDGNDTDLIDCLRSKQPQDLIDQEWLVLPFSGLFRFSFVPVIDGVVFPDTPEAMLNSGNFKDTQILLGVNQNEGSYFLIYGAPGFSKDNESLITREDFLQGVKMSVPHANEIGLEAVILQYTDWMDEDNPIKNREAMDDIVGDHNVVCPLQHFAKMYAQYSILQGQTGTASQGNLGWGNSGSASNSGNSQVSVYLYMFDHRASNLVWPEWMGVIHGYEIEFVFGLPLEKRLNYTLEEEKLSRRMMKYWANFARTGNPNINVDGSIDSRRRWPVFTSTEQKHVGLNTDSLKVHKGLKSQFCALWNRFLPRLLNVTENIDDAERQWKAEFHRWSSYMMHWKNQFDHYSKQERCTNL
Description: Inhibition of Electrophorus electricus C2888 AChE using acetylthiocholine iodide as substrate at 50 uM by Ellman's spectroscopic method

Acetylcholinesterase, sequence (O42275 whole entry): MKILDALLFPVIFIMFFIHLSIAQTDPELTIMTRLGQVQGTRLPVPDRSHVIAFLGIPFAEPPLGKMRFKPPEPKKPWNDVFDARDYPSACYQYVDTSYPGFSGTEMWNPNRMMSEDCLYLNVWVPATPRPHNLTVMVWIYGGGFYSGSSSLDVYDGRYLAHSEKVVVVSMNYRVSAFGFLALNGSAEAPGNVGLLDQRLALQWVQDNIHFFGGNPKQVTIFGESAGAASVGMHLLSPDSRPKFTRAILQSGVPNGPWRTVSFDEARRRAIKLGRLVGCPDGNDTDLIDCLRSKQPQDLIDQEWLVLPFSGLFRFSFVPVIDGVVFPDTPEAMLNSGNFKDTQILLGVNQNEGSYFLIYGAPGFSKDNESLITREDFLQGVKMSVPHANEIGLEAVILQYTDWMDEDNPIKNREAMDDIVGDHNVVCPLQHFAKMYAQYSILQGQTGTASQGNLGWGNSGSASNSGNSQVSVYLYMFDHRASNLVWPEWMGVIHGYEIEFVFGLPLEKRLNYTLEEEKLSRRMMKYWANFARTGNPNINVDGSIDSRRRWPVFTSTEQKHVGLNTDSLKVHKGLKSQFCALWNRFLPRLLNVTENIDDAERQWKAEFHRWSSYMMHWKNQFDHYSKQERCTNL

Row | SMILES | Activity (KB [1]) | IC50 (Acetylcholinesterase) [µM] | IC50 (KB [2]) [µM] | inhibition [3]
1 | CC(C)=CCc1c(O)cc(O)c2c(=O)c(O)c(-c3ccccc3)oc12 | inactive | – | – | –
2 | COc1cc(/C=C\c2ccccc2)cc(OC)c1 | inactive | – | – | –
3 | CC(C)=CCc1c(O)cc2c(c1O)C(=O)C[C@@H](c1ccccc1)O2 | inactive | 18 | – | –
4 | COc1cc(/C=C/c2ccccc2)c(CC=C(C)C)c(OC)c1 | – | 19 | 4 | –
5 | CC(C)=CCc1c(O)cc(O)c2c1O[C@H](c1ccccc1)CC2=O [GLABRANIN] | inactive | 23 | – | –
6 | CC(C)=CCc1c(O)cc2oc(-c3ccccc3)c(O)c(=O)c2c1O | – | – | 10 | –
7 | Oc1cc(/C=C/c2ccccc2)c2ccoc2c1 [FURANOKURZIN] | inactive | 42 | – | –
8 | C=C(C)C(O)Cc1c(O)cc2oc(-c3ccccc3)c(O)c(=O)c2c1O (racemic) | inactive | – | – | –
9 | CC1(C)C=Cc2c(cc3oc(-c4ccccc4)c(O)c(=O)c3c2O)O1 [MACAKURZIN C] | inactive | 20 | – | inactive
10 | CC1(C)Oc2cc3oc(-c4ccccc4)c(O)c(=O)c3c(O)c2CC1O (racemic) | – | – | 13 | –
11 | COc1cc(O)c2c(=O)c(O)c(-c3ccccc3)oc2c1 | inactive | – | – | –
12 | O=c1c(O)c(-c2ccccc2)oc2cc(O)cc(O)c12 | inactive | – | – | –
13 | COc1cc(/C=C/c2ccccc2)cc(OC)c1 [3,5-O-DIMETHYLPINOSYLVIN] | inactive | 9 | – | –

From ChEMBL document CHEMBL2163346, “Acetylcholinesterase inhibitors from the leaves of Macaranga kurzii” (J Nat Prod, 2012)
